According to patent US20220323594A1, “LIPIDATED CATIONIC PEPTIDE-PEG COMPOSITIONS FOR NUCLEIC ACID DELIVERY” (NUTCRACKER THERAPEUTICS, INC., priority 2019, published 2022):

Legend:
HeLa cells [1] = assay: In vitro Fluc expression with variable peptoid:mRNA mass ratio, 2% DMG-PEG2000; format: cell-based; settings: 24 h; for Observed Luciferase Expression (RLU) for Given Formulation Mass Ratio 2:1: 2% (w/w) DMG-PEG2000, peptoid:mRNA 2:1; for Observed Luciferase Expression (RLU) for Given Formulation Mass Ratio 3.5:1: 2% (w/w) DMG-PEG2000, peptoid:mRNA 3.5:1; for Observed Luciferase Expression (RLU) for Given Formulation Mass Ratio 5:1: 2% (w/w) DMG-PEG2000, peptoid:mRNA 5:1; for Observed Luciferase Expression (RLU) for Given Formulation Mass Ratio 7.5:1: 2% (w/w) DMG-PEG2000, peptoid:mRNA 7.5:1
Protocol: The charge ratio dependence of amino lipidated peptoid delivery vehicles was evaluated by formulating particles between Fluc mRNA and delivery vehicles at varying mass ratios. Formulations were varied between 2:1 and 7.5:1 peptoid:mRNA (w/w) ratios (2:1, 3.5:1, 5:1 and 7.5:1). In addition, the role of DMG-PEG2000 was also explored with the mass ratios, either by excluding DMG-PEG2000 or incorporating DMG-PEG2000 at 2% (w/w) relative to amino lipidated peptoid. Fluc expression from these formulations was measured in HeLa cells following treatment for 24 hours. […] FIGS. 6B and 6C show plots of the average bioluminescence (RLU) for HeLa cells treated with the formulations of exemplary amino lipidated cationic peptoid compounds 1-36, all formulated with 2% w/w DMG-PEG2000.

[2] = MTT viability assay after treatment with Fluc mRNA/amino lipidated peptoid formulations; format: cell-based; settings: human, HeLa cells
Protocol: Cellular viability was measured following treatment with Fluc mRNA/amino lipidated peptoid formulations by a traditional MTT viability assay. […] In this assay, cells were first treated with peptoid formulations at a final mRNA concentration of 100 ng/well for 8 hours. Cells were then left to grow for 48 hours, after which time they were exposed to 1.5 mg/mL 3-(4,5-dimethylthiazol-2-yl)-2,5-diphenyltetrazolium bromide (MTT) for 2 hours, then lysed using a solubilizing solution of 10% Triton-X 100 in acidic isopropanol (0.1N HCl). The signal corresponding to reduced formazan was normalized to untreated cells to provide a relative viability of each treated condition. […] In general, nearly all conditions maintained at least 80% viability with the only exceptions being formulations of compound 5, 34, and 35.

HeLa cells [3] = assay: In vitro expression of firefly luciferase (Fluc) after treatment with Fluc mRNA/amino lipidated peptoid formulations, no PEG or 2% DMG-PEG2000; format: cell-based
Protocol: The efficacy of mRNA/amino lipidated peptoid formulations was evaluated in vitro based on their ability to deliver the firefly luciferase (Fluc) reporter gene to cultured cells. Amino lipidated peptoids were combined with Fluc mRNA at a 5:1 w/w ratio, and the resulting particles were added to cultured HeLa cells at a dose of 100 ng/well (in 100 μL total volume). The resulting luciferase expression (RLU) was measured by a luminescence plate reader after 6 hours and 24 hours of treatment. […] In addition to evaluating nanoparticle complexes formed between mRNA cargos and amino lipidated peptoids alone, multicomponent formulations containing a small amount of PEG-lipid DMG-PEG2000 were also tested for in vitro Fluc mRNA delivery. In these formulations, DMG-PEG2000 was pre-mixed with candidate peptoid at an overall 2% incorporation (w/w), while maintaining the same 5:1 mass ratio of peptoid:mRNA used previously.

[4] = Dynamic light scattering (DLS) of mRNA/peptoid formulations: particle size and polydispersity; format: physicochemical; settings: Fluc mRNA/peptoid formulation; for Size PDI: size polydispersity index by DLS, 5:1 mass ratio; for Size (nm): volume average particle size/diameter by DLS, 5:1 mass ratio peptoid:cargo
Protocol: (§1) To prepare nanoparticle formulations, the amino lipidated peptoid is mixed by pipetting with nucleic acid at a mass ratio between approximately 1:1 (peptoid:cargo) and 20:1. Prior to formulation, amino lipidated peptoid and nucleic acid cargo were diluted in ethanol and acidic buffer (PBS adjusted to pH 5.5 with 0.1 M HCl) respectively to a volume ratio of 1:3 and to target a final cargo concentration of approximately 0.05 mg/mL to 0.2 mg/mL. The exemplary amino lipidated cationic peptoids described in Example 2 were combined with firefly luciferase (Fluc) mRNA to form nanoparticle compositions to be evaluated for therapeutic and/or prophylactic purposes in vitro or in vivo. The formulations were prepared according to the protocol of Example 3 and mixed by simple pipetting. The mRNA/peptoid formulation at a 5:1 mass ratio of peptoid:cargo were evaluated by dynamic light scattering (DLS) in order to determine the volume average particle size/diameter (nm) of the mRNA/peptoid complex and the size polydispersity index (PDI) within the formulation. The percentage of mRNA encapsulation for each formulation of the exemplary compounds were determined by fluorescence of the Qubit RNA HS (Invitrogen) dye before and after lysis of particles by Triton X-100.

[5] = mRNA encapsulation by fluorescence of Qubit RNA HS dye before and after lysis with Triton X-100; format: physicochemical; settings: percentage of mRNA encapsulation; Fluc mRNA/peptoid formulation, 5:1 mass ratio
Protocol: as §1, with “The” for “To prepare nanoparticle formulations, the amino lipidated peptoid is mixed by pipetting with nucleic acid at a mass ratio between approximately 1:1 (peptoid:cargo) and 20:1. Prior to formulation, amino lipidated peptoid and nucleic acid cargo were diluted in ethanol and acidic buffer (PBS adjusted to pH 5.5 with 0.1 M HCl) respectively to a volume ratio of 1:3 and to target a final cargo concentration of approximately 0.05 mg/mL to 0.2 mg/mL. The”

[6] = no PEG, peptoid:Fluc mRNA 5:1 w/w, 100 ng/well, 6 h of treatment
[7] = no PEG, peptoid:Fluc mRNA 5:1 w/w, 100 ng/well, 24 h of treatment
[8] = with 2% (w/w) DMG-PEG2000, peptoid:mRNA 5:1, 6 h after treatment
[9] = with 2% (w/w) DMG-PEG2000, peptoid:mRNA 5:1, 24 h after treatment

SMILES	Observed Luciferase Expression (RLU) for Given Formulation Mass Ratio 2:1 (HeLa cells [1]) [RLU]	Observed Luciferase Expression (RLU) for Given Formulation Mass Ratio 3.5:1 (HeLa cells [1]) [RLU]	Observed Luciferase Expression (RLU) for Given Formulation Mass Ratio 5:1 (HeLa cells [1]) [RLU]	Observed Luciferase Expression (RLU) for Given Formulation Mass Ratio 7.5:1 (HeLa cells [1]) [RLU]	viability at 8 h, 500 ng/well ([2]; Relative Viability (%) 2% PEG) [%]	viability at 8 h, 500 ng/well ([2]; Relative Viability (%) No PEG) [%]	Luciferase Expression (RLU) 6 h (HeLa cells [3]; [6]) [RLU]	Luciferase Expression (RLU) 24 h (HeLa cells [3]; [7]) [RLU]	Luciferase Expression (RLU) 6 h (HeLa cells [3]; [8]) [RLU]	Luciferase Expression (RLU) 24 h (HeLa cells [3]; [9]) [RLU]	Size PDI [4]	Size (nm) [4] [nm]	% Encapsulation [5] [%]
CCCCCCCCN(CC(N)=O)C(=O)CN(CCCCCCCC)C(=O)CN(CCc1ccccc1)C(=O)CN(CCc1ccccc1)C(=O)CN(CCN)C(=O)CN(CCc1ccccc1)C(=O)CN(CCc1ccccc1)C(=O)CN(CCN)C(=O)CN(CCc1ccccc1)C(=O)CN(CCc1ccccc1)C(=O)CNCCN [Compound 1]	6.82E+02	3.12E+02	2.31E+02	3.35E+01	88.1	97.4	1.22E+02	4.00E+01	2.09E+02	8.67E+00	0.047	356.9	90.1
CCCCCCCCCCCCN(CC(N)=O)C(=O)CN(CCCCCCCCCCCC)C(=O)CN(CCc1ccccc1)C(=O)CN(CCc1ccccc1)C(=O)CN(CCN)C(=O)CN(CCc1ccccc1)C(=O)CN(CCc1ccccc1)C(=O)CN(CCN)C(=O)CN(CCc1ccccc1)C(=O)CN(CCc1ccccc1)C(=O)CNCCN [Compound 3]	4.42E+03	2.56E+03	4.53E+03	2.69E+03	95.3	91.2	2.27E+02	2.99E+02	3.14E+02	4.68E+02	0.247	255.3	95.9
CCCCCCCCCCCCN(CC(N)=O)C(=O)CN(CCCCCCCCCCCC)C(=O)CN(CCc1ccc(OC)cc1)C(=O)CN(CCc1ccc(OC)cc1)C(=O)CN(CCN)C(=O)CN(CCc1ccc(OC)cc1)C(=O)CN(CCc1ccc(OC)cc1)C(=O)CN(CCN)C(=O)CN(CCc1ccc(OC)cc1)C(=O)CN(CCc1ccc(OC)cc1)C(=O)CNCCN [Compound 4]	3.27E+03	1.32E+03	7.84E+03	1.14E+03	89.7	90.4	1.96E+02	1.13E+02	3.16E+02	3.09E+02	0.191	326.7	99.0
CCCCCCCCCCN(CC(N)=O)C(=O)CN(CCCCCCCCCC)C(=O)CN(CCCCCCCCCC)C(=O)CN(CCCCCCCCCC)C(=O)CN(CCCCCCCCCC)C(=O)CN(CCCCCCCCCC)C(=O)CN(CCCCCCCCCC)C(=O)CN(CCc1ccccc1)C(=O)CN(CCc1ccccc1)C(=O)CN(CCN)C(=O)CN(CCc1ccccc1)C(=O)CN(CCc1ccccc1)C(=O)CN(CCN)C(=O)CN(CCc1ccccc1)C(=O)CN(CCc1ccccc1)C(=O)CNCCN [Compound 23]	5.47E+01	1.42E+02	2.07E+02	1.55E+02	118	108	5.60E+01	9.47E+01	2.53E+01	2.13E+01	–	–	3.9
CCCCCCCCCCN(CC(N)=O)C(=O)CN(CCCCCCCCCC)C(=O)CN(CCCCCCCCCC)C(=O)CN(CCCCCCCCCC)C(=O)CN(CCc1ccccc1)C(=O)CN(CCc1ccccc1)C(=O)CN(CCNC)C(=O)CN(CCc1ccccc1)C(=O)CN(CCc1ccccc1)C(=O)CN(CCNC)C(=O)CN(CCc1ccccc1)C(=O)CN(CCc1ccccc1)C(=O)CN(CCNC)C(=O)CN(CCc1ccccc1)C(=O)CN(CCc1ccccc1)C(=O)CNCCNC [Compound 26]	4.91E+02	3.93E+03	6.06E+03	3.19E+03	91.9	98.8	5.00E+00	1.07E+01	5.85E+02	6.45E+02	–	–	35.7
